The source of these data is patent US8808716B2, “Topical foam composition” (Stiefel Research Australia Pty Ltd, priority 2009, dated 2014).

The nature of the data set: accelerated stability study (HPLC) of compatibility of tazarotene with surfactants. Type of data set: physicochemical. As to conditions: 50° C.; in hydrophilic ethoxylated fatty alcohol ether surfactant such as Ceteareth-12, in contrast to various lipophilic surfactants. The method, then:
An accelerated stability study (using HPLC) was conducted at 50° C. to measure the compatibility of tazarotene with various surfactants.

As to `CCOC(=O)c1ccc(C#Cc2ccc3c(c2)C(C)(C)CCS3)nc1` [tazarotene], the “tazarotene stability (compatibility with surfactant)” value is on record as “most stable”.
